Test results from patent US20110182922A1, “PEPTIDES OF IL1 BETA AND TNF ALPHA AND METHOD OF TREATMENT USING SAME” (VAX CONSULTING, priority 2004, published 2011).
Bridge positions count the residues as written; N and C are the ends. Ends that are not written are not given here.

Experiments:
Format in all cases: in vivo
native mTNFα cytokine = experiment: ELISA test of serum antibodies against native mTNFα after immunization; design: unit not given here; details: ELISA on serum day D50; groups of 4 mice, 20 ug peptide coupled to KLH, boosters D20 and D40
Experimental: (§1) 6 groups of 4 mice were immunized against 20 ug of the murine IL1β peptides IRQLHYRLRDEQQKSL (group 1) (SEQ ID NO:11), SFVQGEPSNDKIP (group 2) (SEQ ID NO:12), QYPKKKMEKRFVFNKIEV (group 3) (SEQ ID NO:13), IIDFTMESVSS (group 4) (SEQ ID NO:14), and 20 ug of the murine TNFα peptide KYLDFAESGQVY (group 5) (SEQ ID NO:6) all coupled to KLH. Group 6 corresponds to mice immunized by KLH alone. A booster was administered on days D20 and D40. On day D50 the mice were sacrificed and the antibodies directed against the native mTNFα cytokine and the native mIL1β cytokine in the serums were measured by an ELISA test.

native mIL1β cytokine = experiment: ELISA test of serum antibodies against native mIL1β after immunization; design: unit not given here; details: ELISA on serum day D50; groups of 4 mice, 20 ug peptide coupled to KLH, boosters D20 and D40
Experimental: as §1

[1] = tested on: TNFα-dependent septic shock in mice; experiment: model of endotoxinic shock (LPS with Galactosamine) after preimmunization; details: Balb/c mice preimmunized with KLH-coupled peptide, shock on day D50 by LPS with Galactosamine; control KLH alone; p=0.008
Experimental: 4 murine TNFα peptides coupled to the KLH carrier protein, including the cyclized peptide CVSRFAISYQEKVNLLSC (SEQ ID NO:15) called TNFα-6, were tested in a model of endotoxinic shock. For this purpose, Balb/c mice were preimmunized against these peptides on days D0, […], and D40. On day D50, the mice were subjected to shock, i.e. they were injected with LPS with Galactosamine. A control was carried out on mice immunized against KLH alone.
It is noted that all the mice died after two days, except for the group immunized against the TNFα-6 peptide where the mice were protected. The protection conferred by the immunization was very significant (p=0.008).

[2] = tested on: collagen arthritis induced in mice; experiment: model of collagen arthritis after preimmunization; details: DBA1 mice preimmunized with KLH-coupled peptide, collagen in Freund's adjuvant D80 and D95, scored D100-D160; control KLH alone; p=0.0003, ANOVA test
Experimental: 3 murine IL1β peptides coupled to the KLH protein, including the cyclized IL1-6 peptide of sequence YCYISTSQAEHKPVFLGC (SEQ ID NO:16), were tested in a model of collagen arthritis. For this purpose, DBA1 mice were preimmunized against these peptides on days D0, D20, D40, […]. On day D80 the mice were immunized against collagen in Freund's adjuvant, and similarly on day D95. The development of arthritis was monitored between day D100 and day D160: twice weekly, the mice were examined and a score was attributed to them as a function of the state of inflammation of their joints (0=no inflammation, 1=slight inflammation, 2=average inflammation, 3=strong inflammation).

## IIDFTMESVSS [Group 4, murine IL1β peptide 142-152]
Native mTNFα cytokine
  Anti-TNFα response Average: 0.12
Native mIL1β cytokine
  Anti-IL1β response Average: 0.8

## CVSRFAISYQEKVNLLSC (disulfide 1-18 (inferred)) [TNFα-6, cyclized murine TNFα peptide]
[1]
  survival of mice subjected to septic shock (protection): protected

## YCYISTSQAEHKPVFLGC (disulfide 2-18 (inferred); also: coupled to KLH carrier protein) [IL1β-6, cyclized murine IL1β peptide]
[2]
  clinical score of joint inflammation (protection with respect to control): strong protection level

## YISTSQAEHKPVFLG [SEQ ID NO:3, peptide area 121-135 of the murine IL1β cytokine]
[2]
  clinical score of joint inflammation (protection with respect to control): capable of blocking collagen arthritis induced in mice

## IRQLHYRLRDEQQKSL [Group 1, murine IL1β peptide 3-18]
Native mTNFα cytokine
  Anti-TNFα response Average: 0.13
Native mIL1β cytokine
  Anti-IL1β response Average: 1.5

## VSRFAISYQEKVNLLS [SEQ ID NO:1, peptide area 80-95 of the murine TNFα cytokine]
[1]
  survival of mice subjected to septic shock (protection): capable of blocking TNFα-dependent septic shock in mice

## QYPKKKMEKRFVFNKIEV [Group 3, murine IL1β peptide 89-106]
Native mTNFα cytokine
  Anti-TNFα response Average: 0.18
Native mIL1β cytokine
  Anti-IL1β response Average: 1.6

## SFVQGEPSNDKIP [Group 2, murine IL1β peptide 45-57]
Native mTNFα cytokine
  Anti-TNFα response Average: 0.15
Native mIL1β cytokine
  Anti-IL1β response Average: 1.9

## KYLDFAESGQVY [Group 5, murine TNFα peptide 140-150]
Native mTNFα cytokine
  Anti-TNFα response Average: 1.3
Native mIL1β cytokine
  Anti-IL1β response Average: 0.31
